Assay [1] addresses Human immunodeficiency virus type 1 integrase (Human immunodeficiency virus 1, UniProt Q7ZJM1). The experiment in a line: Inhibition of HIV-1 integrase-mediated 3'-processing and strand transfer activity.
Assay [2] has as its system Human immunodeficiency virus 1. The experiment in a line: Antiviral activity against HIV1 by cell based luciferase assay. The format is functional, organism-based.
Assay [3] concerns Human immunodeficiency virus 1. Nature of the assay: Antiviral activity against HIV1 assessed as inhibition of viral replication after 6 days by cell based p24 antigen assay. To be noted: Human immunodeficiency virus 1, 144 h.
The subject of assay [4] is Human immunodeficiency virus 1. The experiment in a line: Antiviral activity against HIV1 by cell based luciferase assay in presence of 50% serum. The assay is classed as functional.

These results are taken from ChEMBL document CHEMBL1255515, “Design of a series of bicyclic HIV-1 integrase inhibitors. Part 2: azoles: effective metal chelators” (Bioorg Med Chem Lett, 2010).

pEC50, pIC50: −log10 of the molar value.

Human immunodeficiency virus type 1 integrase, sequence (Q7ZJM1 whole entry): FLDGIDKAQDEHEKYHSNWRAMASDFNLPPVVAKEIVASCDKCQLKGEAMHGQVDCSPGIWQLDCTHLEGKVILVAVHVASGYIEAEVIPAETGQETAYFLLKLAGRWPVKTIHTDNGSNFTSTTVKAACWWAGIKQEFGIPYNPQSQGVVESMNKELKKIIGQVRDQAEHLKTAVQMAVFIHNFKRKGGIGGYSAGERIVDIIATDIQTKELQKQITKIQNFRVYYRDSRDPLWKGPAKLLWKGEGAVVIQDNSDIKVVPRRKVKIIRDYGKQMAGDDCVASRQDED

For the compound `O=c1c(O)c(-c2ncc(Cc3ccc(F)cc3)s2)nc2c(N3CCCS3(=O)=O)cc(N3CCOCC3)cn12`, the pIC50 (usually −log10 of the IC50, conventionally taken in molar units) in assay [1] is 7.44. Also, in assay [2], the pEC50 (in general, the negative decadic logarithm of the EC50, by convention in mol/L) was 7.94.

For `O=c1c(O)c(-c2ncc(Cc3ccc(F)cc3)s2)nc2ccc(N3CCOCC3)cn12`, the pIC50 in assay [1] is 7.70. In addition, the negative-log EC50 (pEC50) was 7.49 in assay [2] and 7.78 in assay [3].

In assay [1], `O=c1c(O)c(-c2ncc(Cc3ccc(F)cc3)s2)nc2c(Br)cc(N3CCOCC3)cn12` showed a pIC50 of 7.38. The negative logarithm of the EC50 (pEC50) was 7.85 in assay [2] and 8.36 in assay [3].

Regarding `O=C(NCc1ccc(F)cc1)c1nc2ccc(N3CCOCC3)cn2c(=O)c1O`, in assay [1], the pIC50 is 6.11. Also, the results for the pEC50 in assay [2] and in assay [3] were 6.67 and 7.55, respectively.

As to `O=c1c(O)c(-c2nnc(Cc3ccc(F)cc3)o2)nc2ccc(N3CCOCC3)cn12`, the pIC50 in assay [1] is 6.51. The negative logarithm of the EC50 (pEC50) in assay [3] was 6.67.

In assay [1], `O=c1c(O)c(-c2noc(Cc3ccc(F)cc3)n2)nc2ccc(N3CCOCC3)cn12` gave a pIC50 of 6.35. Besides, the negative-log EC50 (pEC50) in assay [3] is 7.00.

In assay [2], `O=c1c(O)c(-c2nnc(Cc3ccc(F)cc3)[nH]2)nc2ccc(N3CCOCC3)cn12` gave a pEC50 of 6.70.

Take `O=c1c(O)c(-c2nnc(Cc3ccc(F)cc3)s2)nc2ccc(N3CCOCC3)cn12`: the pIC50 in assay [1] was 6.65. Moreover, the pEC50 in assay [3] is 7.85.

`O=c1c(O)c(-c2nc(Cc3ccc(F)cc3)no2)nc2ccc(N3CCOCC3)cn12` showed a pIC50 in assay [1] of under 5.00. For the same compound, the pEC50 in assay [2] was under 6.00.

In assay [1], `O=c1c(O)c(-c2ncc(Cc3ccc(F)cc3)o2)nc2ccc(N3CCOCC3)cn12` gave a pIC50 of 7.23. The values for the pEC50 in assay [2] and in assay [3] were 7.67 and 8.22, respectively.

The compound `O=c1c(O)c(-c2ncc(Cc3ccc(F)cc3)[nH]2)nc2ccc(N3CCOCC3)cn12` showed a negative logarithm of the IC50 (pIC50) in assay [1] of 7.35. In assay [2], this compound gave a pEC50 of 7.21.

In assay [1], `O=c1c(O)c(-c2ncc(Cc3ccc(F)cc3)o2)nc2c(I)cc(N3CCOCC3)cn12` had a pIC50 of 6.77. Also, the negative-log EC50 (pEC50) in assay [2] is 8.05; in assay [3] it was 8.59.

Take `O=c1c(O)c(-c2ncc(Cc3ccc(F)cc3)[nH]2)nc2c(Br)cc(N3CCOCC3)cn12`: in assay [2], the pEC50 was 7.54.

In the case of `O=c1c(O)c(-c2ncc(Cc3ccc(F)cc3)o2)nc2c(N3CCCS3(=O)=O)cc(N3CCOCC3)cn12`, the pEC50 in assay [2] is under 6.00.

Consider `O=c1c(O)c(-c2ncc(Cc3ccc(F)cc3)[nH]2)nc2c(N3CCCS3(=O)=O)cc(N3CCOCC3)cn12`, for which, in assay [1], the pIC50 was 7.02. The compound also showed a pEC50 in assay [2] of under 6.00.

With `CN1CCN(c2cc(N3CCOCC3)cn3c(=O)c(O)c(-c4ncc(Cc5ccc(F)cc5)[nH]4)nc23)S1(=O)=O`, in assay [1], the negative-log IC50 (pIC50) is 7.15. Further, the pEC50 in assay [2] was 7.96.

Regarding `O=C1OCCN1c1cc(N2CCOCC2)cn2c(=O)c(O)c(-c3ncc(Cc4ccc(F)cc4)[nH]3)nc12`, in assay [1], the pIC50 is 7.46. In assay [2], this compound showed a negative logarithm of the EC50 (pEC50) of 7.19.

`O=C1CCCN1c1cc(N2CCOCC2)cn2c(=O)c(O)c(-c3ncc(Cc4ccc(F)cc4)[nH]3)nc12` gave a negative-log IC50 (pIC50) in assay [1] of 7.33. Besides, the pEC50 in assay [2] was 7.41.

In assay [2], `CCN(C(=O)C(=O)N(C)C)c1cc(N2CCOCC2)cn2c(=O)c(O)c(-c3ncc(Cc4ccc(F)cc4)[nH]3)nc12` showed a negative-log EC50 (pEC50) of 7.07.

For the compound `CC(C)N1CCN(c2cc(N3CCOCC3)cn3c(=O)c(O)c(-c4ncc(Cc5ccc(F)cc5)[nH]4)nc23)C1=O`, the negative-log EC50 (pEC50) in assay [2] was 8.22. Moreover, the “fold change (FC)” value in assay [4] was under 3.
